Data: patent US8217065B2, “Organic compounds” (Novartis AG, priority 2007, dated 2012)

Biological target: T1, human DGAT1 (Homo sapiens, UniProt O75907)
T1 construct: (His)6; made in house; host or cells: Sf9 insect cells (membrane preparation)
T1 sequence (O75907 1-488): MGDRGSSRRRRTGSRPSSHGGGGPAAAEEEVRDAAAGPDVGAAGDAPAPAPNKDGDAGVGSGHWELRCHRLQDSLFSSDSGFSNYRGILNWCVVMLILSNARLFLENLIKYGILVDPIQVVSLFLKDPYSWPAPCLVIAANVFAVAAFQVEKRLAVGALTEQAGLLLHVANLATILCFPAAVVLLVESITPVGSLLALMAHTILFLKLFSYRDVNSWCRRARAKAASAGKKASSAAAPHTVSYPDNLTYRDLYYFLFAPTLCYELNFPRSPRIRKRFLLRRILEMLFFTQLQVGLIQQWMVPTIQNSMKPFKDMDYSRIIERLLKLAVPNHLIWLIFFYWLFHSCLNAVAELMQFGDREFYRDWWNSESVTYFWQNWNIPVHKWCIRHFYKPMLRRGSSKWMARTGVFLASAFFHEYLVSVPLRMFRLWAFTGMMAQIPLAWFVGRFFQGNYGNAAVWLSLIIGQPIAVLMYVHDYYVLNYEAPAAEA
Assay: DGAT1 enzyme inhibition assay (Sf9 membrane preparation, LC/MS/MS readout)
Format: biochemical
Conditions: membrane preparation from Sf9 cells overexpressing human (His)6DGAT1; 10-point, 3-fold dose response; read-out: IC50 (inhibitory activity to human DGAT1)
Protocol: The enzyme preparation used in this assay is a membrane preparation from Sf9 cells overexpressing human (His)6DGAT1. During all steps samples were chilled to 4° C. Sf9 cells expressing human (His)6DGAT1 were thawed at RT and re-suspended at a 10:1 ratio (mL buffer/g of cells) in 50 mM HEPES, 1× Complete Protease Inhibitor, pH 7.5. The re-suspended pellet was homogenized for 1 min using a Brinkman PT 10/35 homogenizer with a 20 mm generator. Cells were lysed using Avestin Emulsiflex (chilled to 4° C.) at 10000-15000 psi. Lysate was centrifuged at 100,000×g for 1 h at 4° C. Supernatant was removed and pellets were re-suspended in 50 mM HEPES, 1× Complete Protease Inhibitor, pH 7.5 at ⅙ the volume of supernatant. Re-suspended pellets were pooled and homogenized with 10 strokes of a Glas-Col motor driven teflon pestle on setting 70. The protein concentration of the membrane preparation was quantified using BCA protein assay with 1% SDS. The membrane preparation was aliquoted, frozen on dry ice, and stored at −80° C.
For 50 mL, 25 mL of 0.2 M HEPES stock buffer, 0.5 mL of 1 M MgCl2 (5 mM final concentration), and 24.5 mL of milli-Q H20 are added to the 55 mL Wheaton Potter-Elvehjem homogenizer. Enzyme preparation (0.1 mL) is added to buffer and the mixture is homogenized with 5 strokes on ice using the Glas-Col variable speed homogenizer system on setting 70.
For 50 mL, 0.5 mL 10 mM diolein is added to 9.5 mL of EtOH in a 50 mL Falcon screw cap conical centrifuge tube. Five mL of 10 mM sodium acetate pH 4.5 is added followed by 0.5 mL of 10 mM oleoyl-CoA. Finally, the remaining 4.5 mL of 10 mM sodium acetate pH 4.5 is added followed by 30 mL of milli-Q H2O. The solution should be gently agitated by hand to induce mixing. The final concentrations of EtOH and sodium acetate are 20% and 2 mM, respectively.
Dry compounds are dissolved in the appropriate volume of DMSO to a final concentration of 10 mM. A 10-point, 3-fold dose response is used to evaluate compound potency. All dilutions are performed in DMSO in a Greiner 384-well microplate. • 1. 2 μL of compound in DMSO is added to the appropriate wells. 2 μL of DMSO is added to 100% activity and 100% inhibition controls. • 2. 25 μL of enzyme mix is added to all wells and plate(s) are incubated for 10 min at RT. • 3. 10 μL of 20% acetic acid quench is added to 100% inhibition control wells. Plate(s) are vortexed using Troemner multi-tube vortexer (setting 7 for 10 sec). • 4. 25 μL of substrate mix is added to all wells. Plate(s) are vortexed using Troemner multi-tube vortexer (setting 7 for 10 sec). Plate(s) are incubated for 30 min at RT. • 5. 10 μL of 20% acetic acid quench is added to all wells. Plate(s) are vortexed using Troemner multi-tube vortexer (setting 7 for 10 sec). • 6. 50 μL of 1-butanol w/ glyceryl tripalmitoleate internal standard is added to all wells. • 7. Plate(s) are sealed with super pierce strong plate sealer using the thermo-sealer.
8. Plate(s) are vortexed using Troemner multi-tube vortexer (setting 10 for 5 min). • 9. Plate(s) are centrifuged at 162×g (1000 rpm for GH-3.8 rotor) for 5 min using Beckman GS-6R tabletop centrifuge.
Samples were analyzed by LC/MS/MS using a Waters 1525μ LC and Quattro Micro API MS. Where indicated, tripalmitolein was used as an internal standard to control for instrument variation.
Data is converted to % inhibition prior to curve fitting using the following equation: […]

`Cc1cncc(-c2nnc(-c3ccc4nc(-c5c(Cl)cccc5Cl)[nH]c4c3)o2)c1` [Example 1-15, 2-(2,6-Dichloro-phenyl)-6-[5-(5-methyl-pyridin-3-yl)-[1,3,4]oxadiazol-2-yl]-1H-benzoimidazole] was tested, and the IC50 was 2.3 µM.
In the case of `Clc1cccc(Cl)c1-c1nc2ccc(-c3nc(-c4ccccc4)c(-c4ccccc4)o3)cc2[nH]1` [Example 1-24, 2-(2,6-Dichloro-phenyl)-6-(4,5-diphenyl-oxazol-2-yl)-1H -benzoimidazole], the IC50 is reported as > 10 µM.
Compound `Cc1nc(-c2ccc3nc(-c4c(Cl)cccc4Cl)[nH]c3c2)oc1-c1ccc(Cl)cc1` [Example 1-25, 6-[5-(4-Chlorophenyl)-4-methyl-oxazol-2-yl]-2-(2,6-dichlorophenyl)-1H-benzoimidazole] has an IC50 of 4.7 µM.
Work on `Clc1cccc(Cl)c1-c1nc2ccc(-c3nnc(Nc4cccnc4)o3)cc2[nH]1` [Example 1-29, {5-[2-(2,6-Dichloro-phenyl)-3H-benzoimidazol-5-yl]-[1,3,4]oxadiazol-2-yl}-pyridin-3-yl-amine] yielded an IC50 of 0.4 µM.
For `Clc1cccc(Cl)c1-c1nc2ccc(-c3nnc(N4CCCC4)o3)cc2[nH]1` [Example 1-34, 2-(2,6-Dichloro-phenyl)-6-(5-pyrrolidin-1-yl-[1,3,4]oxadiazol-2-yl)-1H-benzoimidazole], the IC50 was > 10 µM.
Compound `Cc1ccc(Nc2nnc(-c3ccc4nc(-c5c(Cl)cccc5Cl)[nH]c4c3)o2)cn1` [Example 1-38, {5-[2-(2,6-Dichloro-phenyl)-3H-benzoimidazol-5-yl]-[1,3,4]oxadiazol-2-yl}-(6-methyl-pyridin-3-yl)-amine] has an IC50 of 0.054 µM.
`Clc1cc(Nc2nnc(-c3ccc4nc(-c5c(Cl)cccc5Cl)[nH]c4c3)o2)ccn1` [Example 1-43, (2-Chloro-pyridin-4-yl)-{5-[2-(2,6-dichloro-phenyl)-3H-benzoimidazol-5-yl]-[1,3,4]oxadiazol-2-yl}-amine] showed an IC50 of 0.08 µM.
`N#Cc1cccc(Nc2nnc(-c3ccc4nc(-c5c(Cl)cccc5Cl)[nH]c4c3)o2)c1` [Example 1-51, 3-{5-[2-(2,6-Dichloro-phenyl)-3H-benzoimidazol-5-yl]-[1,3,4]oxadiazol-2-ylamino}-benzonitrile] showed an IC50 of 0.31 µM.
In the case of `Cc1cc(CCC(=O)O)cc(C)c1-c1nc2ccc(-c3nnc(Nc4cccc(Cl)c4)o3)cc2[nH]1` [Example 1-59, 3-(4-{6-[5-(3-Chlorophenylamino)-[1,3,4]oxadiazol-2-yl]-1H-benzoimidazol-2-yl}-3,5-dimethylphenyl)-propionic acid], the IC50 is reported as 0.009 µM.
With `COc1ccc(-c2nnc(-c3ccc4nc(-c5c(C)cc(CC(C)(C)C(=O)O)cc5C)[nH]c4c3)o2)cc1` [Example 1-62, 3-(4-{5-[5-(4-Methoxy-phenyl)-[1,3,4]oxadiazol-2-yl]-1H-benzoimidazol-2-yl}-3,5-dimethyl-phenyl)-2,2-dimethyl-propionic acid] the IC50 was 0.015 µM.
